In this experiment the test system is PKC mediated IL-2 production. Nature of the experiment: IL-2 ELISA, human primary T cell, anti CD3+CD28+. The format is cell-based. As to conditions: human primary T cells stimulated with αCD3 and αCD28, 24 hours. The protocol: Compounds 1-328 were tested in a whole cell functional assay for PKC mediated IL-2 production as follows. Human primary T cell isolation and culture: Human primary T cells were prepared as follows. Whole blood was obtained from a healthy volunteer, mixed 1:1 with PBS, layered on to Ficoll Hypaque (Amersham Pharmacia Biotech, Piscataway, N.J., Catalog #17-1440-03) in 2:1 blood/PBS:ficoll ratio and centrifuged for 30 minutes at 4° C. at 1750 rpm. The cells at the serum: ficoll interface were recovered and washed twice with 5 volumes of PBS. These freshly isolated human peripheral blood mononuclear cells were cultured in Yssel's medium containing 40 U/ml IL2 in a flask pre-coated with […] αCD3 and 5 μg/ml αCD28 (Anti-Human CD3, BD Pharmingen Catalog #555336, Anti-Human CD28, Beckman Coulter Catalog #IM1376). The cells were stimulated for 3-4 days, then transferred to a fresh flask and maintained in RPMI (RPMI-1640 with L-Glutamine; Mediatech, Inc., Herndon Va., cat. #10-040-CM) with 10% FBS and 40 U/ml IL-2. The primary T-cells were then washed twice with PBS to remove the IL-2.
Primary T cell stimulation and IL2 ELISA: Human primary T cells (100,000 cells per well) were pre-incubated with or without test compound in Yssel's medium for 1 hour at 37° C. Cells were then stimulated by transferring them to round-bottom 96-well plates pre-coated with […] αCD3 and 5 μg/ml αCD28. For counter assay, cells were instead stimulated by adding 8× stock solutions of PMA and ionomycin in Yssels (for final concentrations of 0.5 ng/ml PMA and 0.1 uM ionomycin, both from Calbiochem). Cells were incubated at 37° C. for 24 hours before 100 μL supernatants were harvested for quantification of IL-2 by ELISA using Human IL-2 Duoset ELISA Kit from R and D Systems, Cat. # DY202E.
In general terms: An ELISA detects its analyte on a solid surface through an enzyme-linked reagent.

24 molecules from patent US9682976B2, “Protein kinase C inhibitors and uses thereof” (Rigel Pharmaceuticals, Inc., priority 2012, dated 2017) can be followed below.

Bounds are passed on as bounds.

The term EC50 denotes the midpoint of the concentration-response curve. The low end stands for greater potency, the high end for weaker potency. `Cn1nnn(-c2cc(Nc3ncc(F)c(N[C@@H]4C[C@@H]5CCCN5C(C)(C)C4)n3)c(F)cc2OCC(=O)C(=O)O)c1=O` [Compound 171, 3-(4-((4-(((7R,8aS)-5,5-dimethyloctahydroindolizin-7-yl)amino)-5-fluoropyrimidin-2-yl)amino)-5-fluoro-2-(4-methyl-5-oxo-4,5-dihydro-1H-tetrazol-1-yl)phenoxy)-2-oxopropanoic acid] came in with an EC50 (Homo sapiens, T-cell, 24 h) of over 10000 nM.
`COc1cc(Nc2ncc(F)c(N[C@@H]3C[C@H]4CCCN4C(C)(C)C3)n2)cc(-n2nnnc2C)c1` (single isomer, unassigned) [Compound 12, (R/S, S/R, R/R, S/S)-5-fluoro-N4-(octahydro-5,5-dimethylindolizin-7-yl)N2-(3-methoxy-5-(5-methyl-1H-tetrazol-1-yl)phenyl)pyrimidine-2,4-diamine] came in with a 50% effective concentration (EC50) of 500 to 1000 nM.
`CC(C)Oc1cc(F)c(Nc2ncc(F)c(N[C@@H]3C[C@@H]4CCCN4C(C)(C)C3)n2)cc1-n1nnnc1C1CC1` [Compound 257, N2-(5-(5-cyclopropyl-1H-tetrazol-1-yl)-2-fluoro-4-isopropoxyphenyl)-5-fluoro-N4-((7R,8aS)-octahydro-5,5-dimethylindolizin-7-yl)pyrimidine-2,4-diamine] displayed an EC50 (Homo sapiens, T-cell, 24 h) of over 10000 nM.
The same measure, in the same setting: under `COc1ccc(Nc2ncc(F)c(N[C@@H]3C[C@@H]4CCCN4C(C)(C)C3)n2)cc1-n1nn[nH]c1=O` [Compound 277, 1-(5-(4-((7R,8aS)-octahydro-5,5-dimethylindolizin-7-ylamino)-5-fluoropyrimidin-2-ylamino)-2-methoxyphenyl)-1H-tetrazol-5(4H)-one] stands over 10000 nM.
`CC(=O)N(C)c1cc(Nc2ncc(F)c(NC3CC(C)(C)N4CCCC4C3C)n2)c(F)cc1C1CC1` (stereo not drawn) [Compound 73] gave a 50% effective concentration (EC50) of 100 to 500 nM.
Take `Cn1nnn(-c2cc(Nc3ncc(F)c(N[C@@H]4C[C@@H]5CCCN5C(C)(C)C4)n3)c(F)cc2C#CCO)c1=O` [Compound 96, 1-(5-(4-((7R,8aS)-octahydro-5,5-dimethylindolizin-7-ylamino)-5-fluoropyrimidin-2-ylamino)-4-fluoro-2-(3-hydroxyprop-1-ynyl)phenyl)-4-methyl-1H-tetrazol-5(4H)-one]: the half-maximal effective concentration (EC50) (Homo sapiens, T-cell, 24 h) is under 100 nM.
The molecule `CC1(C)C[C@H](Nc2nc(Nc3ccc(F)c(-n4nnnc4C4CC4)c3)ncc2Cl)C[C@@H]2CCCN21` [Compound 163, 5-chloro-N2-(3-(5-cyclopropyl-1H-tetrazol-1-yl)-4-fluorophenyl)-N4-((7R,8aS)-5,5-dimethyloctahydroindolizin-7-yl)pyrimidine-2,4-diamine] yielded an EC50 (Homo sapiens, T-cell, 24 h) of under 100 nM.
As to `CC1(C)CC(Nc2nc(Nc3ccc(O[C@@H]4CCOC4)c(C#N)c3)ncc2F)CC2CCCN21` (single isomer, unassigned) [Compound 59], the half-maximal effective concentration (EC50) lay within 100 to 500 nM.
In turn, `Cn1nnn(-c2cc(Nc3ncc(F)c(N[C@@H]4C[C@@H]5CCCN5C(C)(C)C4)n3)c(F)cc2O[C@@H]2CCOC2)c1=O` [Compound 109, 1-(5-((4-(((7R,8aS)-5,5-dimethyloctahydroindolizin-7-yl)amino)-5-fluoropyrimidin-2-yl)amino)-4-fluoro-2-(((R)-tetrahydrofuran-3-yl)oxy)phenyl)-4-methyl-1,4-dihydro-5H-tetrazol-5-one] gave an EC50 (Homo sapiens, T-cell, 24 h) of 100 to 500 nM.
Same read-out and setting: under `Cn1nc2n(c1=O)-c1cc(Nc3ncc(F)c(N[C@@H]4C[C@@H]5CCCN5C(C)(C)C4)n3)ccc1OC21CCOCC1` [Compound 283, 5-fluoro-N2-(1H-2,4-dihydron-spiro(2H-1,4-benzoxazine-4,4′-[4H]pyran)-2-methyl-[1,2,4]triazolo[3,4-c][1,4]benzoxazin-1-one-8-yl)-N4-((7R,8aS)-octahydro-5,5-dimethylindolizin-7-yl)pyrimidine-2,4-diamine] stands 100 to 500 nM; under `CC1(C)C[C@H](Nc2nc(Nc3ccc(OC4CCN(C5COC5)CC4)c(C(F)(F)F)c3)ncc2F)C[C@@H]2CCCN21` [Compound 120], 100 to 500 nM; under `CC1(C)C[C@H](Nc2nc(Nc3cc(-n4cnnn4)c(C4CC4)cc3F)ncc2Cl)C[C@@H]2CCCN21` [Compound 146, 5-chloro-N2-(4-cyclopropyl-2-fluoro-5-(1H-tetrazol-1-yl)phenyl)-N4-((7R,8aS)-5,5-dimethyloctahydroindolizin-7-yl)pyrimidine-2,4-diamine], under 100 nM.
`CC1(C)C[C@H](Nc2nc(Nc3ccc(OCC(O)CO)c(C#N)c3)ncc2F)C[C@@H]2CCCN21` (stereo partly drawn) [Compound 212, 2-(2,3-dihydroxypropoxy)-5-((4-(((7R,8aS)-5,5-dimethyloctahydroindolizin-7-yl)amino)-5-fluoropyrimidin-2-yl)amino)benzonitrile] yielded an EC50 (Homo sapiens, T-cell, 24 h) of 1000 to 10000 nM.
The same measure, in the same setting: under `CC1(C)C[C@H](Nc2nc(Nc3ccc(N4CC(C(N)=O)C4)c(C(F)(F)F)c3)ncc2F)C[C@@H]2CCCN21` [Compound 324, 1-(4-(4-((7R,8aS)-octahydro-5,5-dimethylindolizin-7-ylamino)-5-fluoropyrimidin-2-ylamino)-2-(trifluoromethyl)phenyl)azetidine-3-carboxamide] stands 500 to 1000 nM; under `C[C@@H](CO)Oc1ccc(Nc2ncc(F)c(N[C@@H]3C[C@@H]4CCCN4C(C)(C)C3)n2)cc1-n1nnn(C)c1=O` [Compound 135, 1-(5-((4-(((7R,8aS)-5,5-dimethyloctahydroindolizin-7-yl)amino)-5-fluoropyrimidin-2-yl)amino)-2-(((S)-1-hydroxypropan-2-yl)oxy)phenyl)-4-methyl-1,4-dihydro-5H-tetrazol-5-one], under 100 nM; under `Cn1nc2n(c1=O)-c1cc(Nc3ncc(F)c(N[C@@H]4C[C@@H]5CCCN5C(C)(C)C4)n3)ccc1OC2` [Compound 291, 5-fluoro-N2-(1H-2,4-dihydron-2-methyl-[1,2,4]triazolo[3,4-c][1,4]benzoxazin-1-one-8-yl)-N4-((7R,8aS)-octahydro-5,5-dimethylindolizin-7-yl)pyrimidine-2,4-diamine], 100 to 500 nM.
As for `Cn1nnn(-c2cc(Nc3ncc(F)c(N[C@@H]4C[C@@H]5CCC(=O)N5C(C)(C)C4)n3)c(F)cc2C2CC2)c1=O` (racemic) [Compound 31, 1-(5-(5-fluoro-4-(hexahydro-5,5-dimethylindolizin-3(5H)-one-7-ylamino)pyrimidin-2-ylamino)-2-cyclopropyl-4-fluorophenyl)-4-methyl-1H-tetrazol-5(4H)-one], the EC50 (Homo sapiens, T-cell, 24 h) lay within 1000 to 10000 nM.
For the setting “Homo sapiens, T-cell, 24 h”, `CC1(COc2ccc(Nc3ncc(F)c(N[C@@H]4C[C@@H]5CCCN5C(C)(C)C4)n3)cc2C#N)COC1` [Compound 173, 5-(4-((7R,8aS)-5,5-dimethyloctahydroindolizin-7-ylamino)-5-fluoropyrimidin-2-ylamino)-2-((3-methyloxetan-3-yl)methoxy)benzonitrile] yielded an EC50 of 100 to 500 nM.
`CC1(C)Oc2c(F)cc(Nc3ncc(F)c(NC4CC5CCCN5C(C)(C)C4)n3)cc2-n2nnnc21` (stereo not drawn) [Compound 5] returned an EC50 of 100 to 500 nM.
Molecule `CCN(CC)CCOc1cc(F)c(Nc2ncc(F)c(N[C@@H]3C[C@@H]4CCCN4C(C)(C)C3)n2)cc1-n1nnn(C)c1=O` [Compound 194, 1-(2-(2-(diethylamino)ethoxy)-5-((4-(((7R,8aS)-5,5-dimethyloctahydroindolizin-7-yl)amino)-5-fluoropyrimidin-2-yl)amino)-4-fluorophenyl)-4-methyl-1,4-dihydro-5H-tetrazol-5-one] showed an EC50 (Homo sapiens, T-cell, 24 h) of 100 to 500 nM.
On the same count and under the same terms, for `Cn1nnn(-c2cc(Nc3ncc(F)c(N[C@@H]4C[C@@H]5CCCN5C(C)(C)C4)n3)c(F)cc2OC2CC(O)C2)c1=O` (stereo partly drawn) [Compound 227, 1-(5-((4-(((7R,8aS)-5,5-dimethyloctahydroindolizin-7-yl)amino)-5-fluoropyrimidin-2-yl)amino)-4-fluoro-2-(3-hydroxycyclobutoxy)phenyl)-4-methyl-1,4-dihydro-5H-tetrazol-5-one] the value was 100 to 500 nM; for `Cc1ccc(Nc2ncc(Cl)c(N[C@@H]3C[C@@H]4CCCN4C(C)(C)C3)n2)cc1C#N` [Compound 154, 5-((5-chloro-4-(((7R,8aS)-5,5-dimethyloctahydroindolizin-7-yl)amino)pyrimidin-2-yl)amino)-2-methylbenzonitrile], under 100 nM.
On the same count and under the same terms, for `CC1(C)C[C@H](Nc2nc(Nc3ccc(Cl)c(-n4nnnc4C4CC4)c3)ncc2F)C[C@@H]2CCCN21` [Compound 145, N2-(4-chloro-3-(5-cyclopropyl-1H-tetrazol-1-yl)phenyl)-N4-((7R,8aS)-5,5-dimethyloctahydroindolizin-7-yl)-5-fluoropyrimidine-2,4-diamine] the value was under 100 nM; for `CC1(C)C[C@H](Nc2nc(Nc3cccc(-n4nnnc4S)c3)ncc2F)C[C@@H]2CCCN21` [Compound 259, 1-(3-(4-((7R,8aS)-octahydro-5,5-dimethylindolizin-7-ylamino)-5-fluoropyrimidin-2-ylamino)phenyl)-1H-tetrazole-5-thiol], 1000 to 10000 nM.
